Measured values from patent US20250313563A1, “GLYCOGEN SYNTHASE KINASE 3 INHIBITORS AND USES THEREOF” (The Broad Institute, Inc., priority 2022, published 2025).
Like-named read-outs stand apart in the source and are kept apart here.

Experiments:
[1] = target: GSK3α (GST-full length GSK3α) (Homo sapiens (Human), UniProt P49840); assay: GSK3α TR-FRET kinase assay; format: biochemical
Method in brief: (§1)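 IC50 came from the normalized 665/615 nm TR-FRET ratio plotted against log compound concentration. The Tb-labelled pSer641 antibody and streptavidin-d2 detected phosphorylation of biotinylated S645-primed glycogen synthase peptide (200 nM) by 1 nM full-length GST-kinase. ATP was 4 μM for α, 2 μM for β, or 1 mM.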

[2] = target: GSK3b (GST-full length GSK3b) (Homo sapiens (Human), UniProt P49841); assay: GSK3b TR-FRET kinase assay; format: biochemical
GSK3b (GST-full length GSK3b), sequence (P49841 whole entry): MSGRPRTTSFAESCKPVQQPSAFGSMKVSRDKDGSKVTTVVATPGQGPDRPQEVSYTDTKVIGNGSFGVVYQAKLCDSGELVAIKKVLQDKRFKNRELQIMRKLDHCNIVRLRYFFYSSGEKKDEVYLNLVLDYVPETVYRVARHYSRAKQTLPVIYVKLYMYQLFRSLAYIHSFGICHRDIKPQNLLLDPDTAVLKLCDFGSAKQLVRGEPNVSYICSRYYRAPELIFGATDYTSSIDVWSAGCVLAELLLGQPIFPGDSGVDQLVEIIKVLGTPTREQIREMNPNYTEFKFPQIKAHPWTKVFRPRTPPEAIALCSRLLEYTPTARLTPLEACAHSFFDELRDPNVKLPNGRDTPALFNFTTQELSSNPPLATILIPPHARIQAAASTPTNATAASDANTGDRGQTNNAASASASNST
Method in brief: as §1

[3] = 1 nM GSK3α, 4 μM ATP, 30 minute preincubation, Table 16, read-out: GSK3-A TR-FRET BIOCHEMICAL (TR-FRET), IC50
[4] = read-out: GSK3-A (TR-FRET 1 mM ATP), GMean, IC50, 1 mM ATP, geometric mean
[5] = 1 nM GSK3b, 2 μM ATP, 30 minute preincubation, Table 16, read-out: GSK3-B TR-FRET BIOCHEMICAL (TR-FRET), IC50
[6] = read-out: GSK3-B (TR-FRET 1 mM ATP), GMean, IC50, 1 mM ATP, geometric mean
[7] = 1 nM GSK3α, 4 μM ATP, 30 minute preincubation, Table 16, read-out: GSK3-A TR-FRET BIOCHEMICAL (TR-FRET)
[8] = 1 nM GSK3b, 2 μM ATP, 30 minute preincubation, Table 16, read-out: GSK3-B TR-FRET BIOCHEMICAL (TR-FRET)

GSK3α (GST-full length GSK3α), sequence (P49840 whole entry): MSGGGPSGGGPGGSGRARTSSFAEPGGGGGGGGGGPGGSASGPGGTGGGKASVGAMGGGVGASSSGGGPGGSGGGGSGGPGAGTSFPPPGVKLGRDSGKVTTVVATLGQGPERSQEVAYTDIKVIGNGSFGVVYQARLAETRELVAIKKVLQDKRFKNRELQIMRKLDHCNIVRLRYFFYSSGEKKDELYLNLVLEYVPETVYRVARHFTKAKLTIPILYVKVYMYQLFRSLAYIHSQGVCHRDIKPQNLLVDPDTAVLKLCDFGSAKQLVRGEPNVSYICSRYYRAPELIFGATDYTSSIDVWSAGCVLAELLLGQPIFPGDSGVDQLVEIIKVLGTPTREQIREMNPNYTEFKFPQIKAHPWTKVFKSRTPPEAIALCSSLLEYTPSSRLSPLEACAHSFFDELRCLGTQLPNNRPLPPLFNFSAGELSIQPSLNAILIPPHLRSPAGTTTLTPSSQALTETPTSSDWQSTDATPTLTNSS

IC50 [1, 3] [nM]	IC50 [1, 4] [nM]	IC50 [2, 5] [µM]	IC50 [2, 6] [µM]	IC50 [1, 7] [nM]	IC50 [2, 8] [µM]	Compound
≤ 100	100 to 1000	≤ 0.1	1 to 5	–	–	CCC1(c2cccc(-c3ccncc3F)c2)C2=C(CC(C)(C)NC2=O)Nc2n[nH]c(Cl)c21 (centres unmarked) [Compound 949324]
1000 to 5000	–	> 5	–	–	–	CC[C@]1(c2cccc(OC)c2)C2=C(CC(C)(C)NC2=O)Nc2n[nH]c(C)c21 [Compound 949328]
1000 to 5000	–	> 5	–	–	–	CC[C@]1(c2cccc(-c3cn(C)nc3C)c2)C2=C(CC(C)(C)NC2=O)Nc2n[nH]c(Cl)c21 [Compound 949329]
≤ 100	–	0.1 to 1	–	–	–	CC[C@]1(c2cccc(Oc3ncccn3)c2)C2=C(CC(C)(C)NC2=O)Nc2n[nH]cc21 [Compound 949330]
1000 to 5000	–	> 5	–	–	–	CC[C@@]1(c2cccc(-c3cc(C)nnc3C)c2)C2=C(CC(C)(C)NC2=O)Nc2n[nH]cc21 [Compound 949334]
> 5000	–	> 5	–	–	–	CC[C@@]1(c2cccc(Oc3ncccn3)c2)C2=C(CC(C)(C)NC2=O)Nc2n[nH]cc21 [Compound 949335]
≤ 100	≤ 100	≤ 0.1	0.1 to 1	–	–	CCC1(c2cccc(-c3cn(C)nc3C)c2)C2=C(CC(C)(C)NC2=O)Nc2n[nH]c(Cl)c21 (centres unmarked) [Compound 949336]
100 to 1000	–	1 to 5	–	–	–	CC[C@@]1(c2cccc(OC)c2)C2=C(CC(C)(C)NC2=O)Nc2n[nH]c(C)c21 [Compound 949337]
≤ 100	–	0.1 to 1	–	–	–	CCC1(c2cccc(C(F)(F)F)c2)C2=C(CC(C)N(c3cnc(OC)nc3)C2=O)Nc2n[nH]cc21 (centres unmarked) [Compound 949351]
≤ 100	100 to 1000	≤ 0.1	1 to 5	–	–	CCC1(c2cccc(C(F)(F)F)c2)C2=C(CC(C)N(c3cnc(OC)nc3)C2=O)Nc2n[nH]cc21 (centres unmarked) [Compound 949352]
100 to 1000	–	1 to 5	–	–	–	CC[C@@]1(c2cccc(C(F)(F)F)c2)C2=C(C[C@H](C)N(c3cnc(OC)nc3)C2=O)Nc2n[nH]cc21 [Compound 949354]
1000 to 5000	–	> 5	–	–	–	CC[C@@]1(c2cccc(-c3ccnc(C(F)F)c3)c2)C2=C(CC(C)(C)NC2=O)Nc2n[nH]cc21 [Compound 949388]
1000 to 5000	–	> 5	–	–	–	CCC1(c2cccc(-c3cnn4cccnc34)c2)C2=C(CC(C)(C)NC2=O)Nc2n[nH]cc21 (centres unmarked) [Compound 949389]
–	–	–	–	1000 to 5000	> 5	CCc1cccc(C2(CC)C3=C(CC(C)(C)CC3=O)Nc3n[nH]cc32)c1 (centres unmarked) [Compound 949391]
1000 to 5000	–	> 5	–	–	–	CC[C@@]1(c2cccc(-c3c(C)ccc4c(C)cccc34)c2)C2=C(CC(C)(C)NC2=O)Nc2n[nH]c(F)c21 [Compound 949392]
1000 to 5000	–	> 5	–	–	–	CCC1(c2cccc(-c3cnn(C4CC4(F)F)c3)c2)C2=C(CC(C)(C)NC2=O)Nc2n[nH]cc21 (centres unmarked) [Compound 949393]
≤ 100	–	0.1 to 1	–	–	–	CC[C@]1(c2cccc(-c3ccnn3C)c2)C2=C(CC3(CCS(=O)(=O)CC3)NC2=O)Nc2n[nH]cc21 [Compound 949394]
1000 to 5000	–	> 5	–	–	–	CCC1(c2cccc(-c3cnn(C)c3F)c2)C2=C(CC(C)(C)NC2=O)Nc2n[nH]cc21 (centres unmarked) [Compound 949395]
> 5000	–	> 5	–	–	–	CC[C@@]1(c2cccc(-c3ccnn3-c3ccc(F)cc3)c2)C2=C(CC(C)(C)NC2=O)Nc2n[nH]cc21 [Compound 949396]
–	100 to 1000	–	1 to 5	–	–	CCC1(c2cccc(C3CCCC3)c2)C2=C(CC(C)(C)CC2=O)Nc2n[nH]cc21 (centres unmarked) [Compound 949397]
≤ 100	–	0.1 to 1	–	–	–	CCC1(c2cccc(-c3c(C)cnc4ccccc34)c2)C2=C(CC(C)(C)NC2=O)Nc2n[nH]cc21 (centres unmarked) [Compound 949398]
1000 to 5000	–	> 5	–	–	–	CC[C@]1(c2cccc(C3CCCC3)c2)C2=C(CC(C)(C)CC2=O)Nc2n[nH]cc21 [Compound 949399]
1000 to 5000	–	> 5	–	–	–	CC[C@@]1(c2cccc(-c3ccnn3C)c2)C2=C(CC3(CCS(=O)(=O)CC3)NC2=O)Nc2n[nH]cc21 [Compound 949400]
100 to 1000	–	> 5	–	–	–	CC[C@]1(c2cccc(-c3ccnc(C)c3)c2)C2=C(CC(C)(C)NC2=O)Nc2n[nH]c(Cl)c21 [Compound 949421]
≤ 100	100 to 1000	≤ 0.1	1 to 5	–	–	CC[C@@]1(c2cccc(-c3ccnc(C)c3)c2)C2=C(CC(C)(C)NC2=O)Nc2n[nH]c(Cl)c21 [Compound 949422]

IC50 [1, 3] [nM]	IC50 [1, 4] [nM]	IC50 [2, 5] [µM]	IC50 [2, 6] [µM]	IC50 [1, 7] [nM]	IC50 [2, 8] [µM]	Compound
> 5000	–	> 5	–	–	–	CC[C@@]1(c2cccc(-c3cc(C4CCCC4)nn3C)c2)C2=C(CC(C)(C)NC2=O)Nc2n[nH]cc21 [Compound 949509]
> 5000	–	> 5	–	–	–	CC[C@@]1(c2cccc(-c3cnn(CCN4CCCC4)c3)c2)C2=C(CC(C)(C)NC2=O)Nc2n[nH]cc21 [Compound 949510]
> 5000	–	> 5	–	–	–	CC[C@@]1(c2cccc(-c3cnn(Cc4ccc(C(F)(F)F)cc4)c3)c2)C2=C(CC(C)(C)NC2=O)Nc2n[nH]cc21 [Compound 949511]
> 5000	–	> 5	–	–	–	CC[C@@]1(c2cccc(-c3cnn(Cc4cccc(C(F)(F)F)c4)c3)c2)C2=C(CC(C)(C)NC2=O)Nc2n[nH]cc21 [Compound 949513]
1000 to 5000	–	> 5	–	–	–	CCC1(c2cccc(C3CCC3)c2)C2=C(CC(C)(C)CC2=O)Nc2n[nH]cc21 (centres unmarked) [Compound 949514]
> 5000	–	> 5	–	–	–	CC[C@@]1(c2cccc(-c3cnn(-c4cccnc4)c3)c2)C2=C(CC(C)(C)NC2=O)Nc2n[nH]cc21 [Compound 949515]
1000 to 5000	–	> 5	–	–	–	CC[C@@]1(c2cccc(-c3ccncc3C(F)(F)F)c2)C2=C(CC(C)(C)NC2=O)Nc2n[nH]cc21 [Compound 949516]
100 to 1000	–	> 5	–	–	–	CC[C@@]1(c2cccc(-c3ccnn3C3CC3(F)F)c2)C2=C(CC(C)(C)NC2=O)Nc2n[nH]cc21 (some centres unmarked) [Compound 949518]
> 5000	–	> 5	–	–	–	CC[C@@]1(c2cccc(-c3cnn(-c4ccccc4)c3F)c2)C2=C(CC(C)(C)NC2=O)Nc2n[nH]cc21 [Compound 949519]
≤ 100	–	0.1 to 1	–	–	–	CC[C@]1(c2cccc(-c3ccnc(C)c3)c2)C2=C(CC3(CCC3)NC2=O)Nc2n[nH]cc21 [Compound 949520]
≤ 100	100 to 1000	≤ 0.1	1 to 5	–	–	CC[C@@]1(c2cccc(C3CCC3)c2)C2=C(CC(C)(C)CC2=O)Nc2n[nH]cc21 [Compound 949521]
100 to 1000	–	0.1 to 1	–	–	–	CC[C@@]1(c2cccc(C(F)(F)F)c2)C2=C(CCN(CCOC)C2=O)Nc2n[nH]cc21 [Compound 949599]
> 5000	–	> 5	–	–	–	CC[C@]1(c2cccc(C(F)(F)F)c2)C2=C(CCN(CCOC)C2=O)Nc2n[nH]cc21 [Compound 949600]
100 to 1000	–	0.1 to 1	–	–	–	CCC1(c2cccc(C(F)(F)F)c2)C2=C(CCC2=O)Nc2n[nH]cc21 (centres unmarked) [Compound 949639]
–	–	–	–	100 to 1000	1 to 5	CC1CCC12C1=C(CC(C)(C)CC1=O)Nc1n[nH]cc12 (centres unmarked) [Compound 949640]
> 5000	–	> 5	–	–	–	CCC1(c2cccc(C(F)(F)F)c2)C2=C(CCN(c3cn(C)nc3C)C2=O)Nc2n[nH]cc21 (centres unmarked) [Compound 949641]
> 5000	–	> 5	–	–	–	CC[C@]1(c2cccc(-c3ccncc3F)c2)C2=C(CC(C)(C)NC2=O)Nc2n[nH]c(F)c21 [Compound 949643]
100 to 1000	–	1 to 5	–	–	–	CC[C@]1(c2cccc(-c3cc(C)ncc3F)c2)C2=C(CC(C)(C)NC2=O)Nc2n[nH]c(C(F)(F)F)c21 [Compound 949644]
> 5000	–	> 5	–	–	–	CC[C@@]1(c2cccc(C(C)C)c2)C2=C(CC(C)(C)NC2=O)Nc2n[nH]c(C)c21 [Compound 949646]
≤ 100	≤ 100	≤ 0.1	1 to 5	–	–	CC[C@@]1(c2cccc(N(C)c3ncccn3)c2)C2=C(CC(C)(C)NC2=O)Nc2n[nH]c(F)c21 [Compound 949648]
≤ 100	100 to 1000	≤ 0.1	1 to 5	–	–	CC[C@]1(c2cccc(C(C)C)c2)C2=C(CC(C)(C)NC2=O)Nc2n[nH]c(C)c21 [Compound 949649]
≤ 100	100 to 1000	≤ 0.1	1 to 5	–	–	CC[C@@]1(c2cccc(-c3cc(C)ncc3F)c2)C2=C(CC(C)(C)NC2=O)Nc2n[nH]c(C(F)(F)F)c21 [Compound 949650]
≤ 100	100 to 1000	≤ 0.1	> 5	–	–	CCC1(c2cccc(-c3ccncc3F)c2)C2=C(CC(C)(C)NC2=O)Nc2n[nH]c(F)c21 (centres unmarked) [Compound 949651]
100 to 1000	–	0.1 to 1	–	–	–	CC[C@@]1(c2cccc(C(F)(F)F)c2)C2=C(Nc3n[nH]cc31)c1ccccc1C2=O [Compound 949742]
